Results from publication PMC7969873 (Cell Reports, 2021).
Read-outs that look alike come from different tables or passages of the source.

How the values were obtained:
[1] = tested on: SARS-CoV-2; assay: SARS-CoV-2 replication kinetics in Vero E6 cells (RT-qPCR genome copies, western blot); assay type: cell-based; conditions: for viral genome and protein production: from 8 h onward
[2] = tested on: human primary lung cells; assay: Toxicity in human primary lung cells; assay type: cell-based
[3] = tested on: hiPSC-CMs; assay: Cardiomyocyte beating / in vitro cardiotoxicity in hiPSC-CMs; assay type: cell-based, human; conditions: hiPSC-CMs; 250 nM
Description: Thus, we used the human-induced pluripotent stem-cell-derived cardiomyocyte (hiPSC-CM) system for antiviral drug testing against SARS-CoV-2. […] Thus, this cardiomyocyte system is useful for antiviral drug testing against SARS-CoV-2. […] The inhibition of virus production by berzosertib was evaluated by quantifying the infectious virus (TCID50) in the supernatant at various time points (Figure 2B). […] Infection of cardiomyocytes with SARS-CoV-2 was confirmed by specific staining of cardiac troponin T (cTnT) and viral spike proteins (Figure 2E). Untreated SARS-CoV-2-infected cells had infection-mediated cell injury with disrupted troponin T fibers.

[4] = tested on: ATR; parameters: method as in vendor Selleckchem; conditions: HT29 cells; ref vendor Selleckchem; read-out: IC50, ATR inhibition; cited from earlier work
[5] = tested on: SARS-CoV-2; assay type: cell-based; conditions: 250 nM, Vero E6 cells, 48 h
[6] = tested on: CHK1 phosphorylation (pCHK1); assay: CHK1 phosphorylation in Vero E6 cells (western blot); assay type: cell-based
Description: Cells were lysed in 50 mM Tris pH 7.4, 1% NP-40, 0.25% sodium deoxycholate, 1 mM EDTA, 150 mM NaCl, 1 mM Na3VO4, […], 1mM PMSF, 2 mg ml^-1 aprotinin, 2 mg ml^-1 leupeptin and 0.7 mg ml^-1 pepstatin or Laemmli Sample Buffer (Bio Rad, Hercules, CA). Cell lysates were resolved by SDS-PAGE using 10% gradient gels and transferred to a 0.2 μm PVDF membrane. Subsequently, the membranes were blocked with 5% skim milk and 0.1% Tween-20 in 1x TBST (0.1% Tween-20) at room temperature for 1 hour. The membranes were then probed with respective monoclonal antibodies and detected by Thermo Scientific SuperSignal West Femto Maximum Sensitivity Substrate.

[7] = tested on: MERS-CoV; assay: microbe, parasite or virus in culture; assay type: cell-based; conditions: Middle East respiratory syndrome-related coronavirus, Calu-3, read-out: IC50, MERS-CoV viral titer
[8] = tested on: SARS-CoV-1; assay: microbe, parasite or virus in culture; assay type: cell-based; conditions: Severe acute respiratory syndrome coronavirus, Calu-3, read-out: IC50, SARS-CoV-1 viral titer
[9] = tested on: SARS-CoV-2; assay type: cell-based; conditions: hiPSC-CMs, 250 nM
[10] = tested on: SARS-CoV-2; assay: microbe, parasite or virus in culture; assay type: cell-based; conditions: Severe acute respiratory syndrome coronavirus 2, Calu-3 cells, read-out: IC50, SARS-CoV-2 viral titer
[11] = tested on: SARS-CoV-2; assay: microbe, parasite or virus in culture; assay type: cell-based; conditions: for IC50: Severe acute respiratory syndrome coronavirus 2, A549-ACE2, 24 h, 24 h, read-out: IC50, SARS-CoV-2 immunostaining signal
[12] = tested on: SARS-CoV-2
[13] = tested on: SARS-CoV-2; assay: microbe, parasite or virus in culture; assay type: cell-based; conditions: Vero E6 cells; IFA; read-out: IC50, inhibition of SARS-CoV-2 infectivity
[14] = parameters: method as in earlier work; conditions: cancer setting, phases 1 and 2, ref Konstantinopoulos et al., 2020, Yap et al., Thomas et al., 2018; cited from earlier work
[15] = tested on: IL6; assay: IL6 gene expression in SARS-CoV-2-infected Vero E6 cells (RT-qPCR); assay type: cell-based
[16] = tested on: SARS-CoV-2; assay: microbe, parasite or virus in culture; assay type: cell-based
[17] = HeLa-ACE2 uninfected host cell cytotoxicity counter screen; assay type: cell-based; conditions: human, uninfected HeLa-ACE2 cells; read-out: median cytotoxic concentration (CC50)
Description: Compounds were acoustically transferred into 1,536-well μclear plates (Greiner Part. No. 789091). HeLa-ACE2 cells were maintained as described for the infection assay and seeded in the assay-ready plates at 400 cells/well in DMEM with 2% FBS and plates were incubated for 24 hours at 37°C 5% CO2. To assess cell viability, the Image-iT DEAD green reagent (Thermo Fisher) was used according to manufacturer instructions. Cells were fixed with 4% paraformaldehyde, and counterstained with DAPI.

[18] = tested on: SARS-CoV-2; assay: SARS-CoV-2 infection of HEK293-ACE2 cells (IFA); assay type: cell-based; conditions: 100 nM, 48 hpi
[19] = tested on: Calu-3 cells; assay: Cell viability assay (MTT) in Calu-3 cells; assay type: cell-based, human
Description: Calu-3 and A549-ACE2 were seeded in 96-well plates with 3.5 × 10^5 cells/ml, 100 μL per well, for 24 h. The compounds to be tested or pure DMSO as […] control were serially diluted in CoV infection medium (DMEM, supplemented with 1 % L-glu, 1 % P/S and 2 % FBS) to obtain 5-fold of the desired final concentrations. The growth medium was removed from the cells and replaced with 80 μl/well of fresh infection medium. Subsequently, 20 μL of the diluted compounds were added in quadruplicates for each concentration (i.e., 5-fold dilution to reach the final concentrations). Cells were incubated for 48 h at 37°C (5% CO2, 96 % rH). At 48 h post treatment, cell viability was measured on a Tecan Safire 2 plate reader using the CellTiter 96® Non-Radioactive Cell Proliferation Assay (MTT) (Promega) according to manufacturer’s instructions.

CNCc1ccc(-c2cc(-c3nc(-c4ccc(S(=O)(=O)C(C)C)cc4)cnc3N)on2)cc1 [Berzosertib]
number of viral genome copies at 2 hpi (entry) ([1]; 2 hpi): not affected
viral genome and protein production [1]: inhibited
viral genome and protein production ([1]; listed as berzosertib): significantly reduced
concentration with detectable toxicity [2]: > 50 µM
in vitro cardiotoxicity [3]: No in vitro cardiotoxicity
IC50 [4]: 19 nM
antiviral activity (prevention of viral CPE) in primary screen [5]: antiviral activity
phosphorylation of CHK1 [6]: reduced
IC50 [7]: 290 nM
IC50 [8]: 320 nM
virus production (infectious virus, TCID50, in supernatant) [9]: significantly reduced
apoptotic cell death associated with viral infection ([9]; cleaved caspase-3): significantly reduced
IC50 [10]: 480 nM
combination effect (isobologram, Compusyn) [11]: synergistic
selectivity index (SI) ([11]; A549-ACE2 cells): 204
IC50 [11]: 240 nM
IC50 ([11]; A549-ACE2 cells, […]): 220 ± 30 nM
median effective dose (ED50), percentage of infected cells ([12]; HeLa-ACE2 cells): 200 nM
total cells per well (cytotoxic effect at active concentrations) ([12]; SARS-CoV-2-infected HeLa-ACE2 cells): did not change
IC50 [13]: < 25 nM
tolerability in oncology clinical studies [14]: well tolerated
viral-mediated induction of pro-inflammatory gene IL6 [15]: reduced
inhibition of SARS-CoV-2 [16]: effective
IC50 ([16]; Severe acute respiratory syndrome coronavirus 2, human primary lung cells): 40 nM
CC50 at 24 h [17]: 3890 nM
inhibition of virus replication [18]: complete inhibition
concentration with detectable toxicity [19]: > 50 µM
